In patent publication EP2186507A2, “A liquid pharmaceutical formulation comprising nicotine for the administration to the oral cavity” (McNeil AB, priority 2001, dated 2003):
Read-outs that look alike come from different tables or passages of the source.

Legend:
[1] = Text: Absorption of nicotine from the oral cavity to the systemic circulation is dependent on the pH of the saliva and the pKa of nicotine, which is about 7.8. Assuming a pH of the saliva of 6.8 only about 10% of the nicotine in saliva will be in the free base form. Thus, in order to promote absorption of nicotine in a free base form, which is the form predominantly absorbed through the mucosa, the pH of the saliva must be increased. At a pH of 8.8 about 90% of the nicotine in saliva will then be in the free base form.
[2] = Merck Index; cited from earlier work

CN1CCCC1c1cccnc1 (stereo not drawn) [nicotine, 3-(1-methyl-2-pyrrolidinyl)-pyridine]
nicotine in saliva in the free base form ([1]; assuming a pH of the saliva of 6.8): about 10%
nicotine in saliva in the free base form ([1]; at a pH of 8.8): about 90%
amount that may kill an adult [2]: Approximately forty
